Source: patent US6960597B2, “Aza-bridged-bicyclic amino acid derivatives as α4 integrin antagonists” (Orth-McNeil Pharmaceutical, Inc., priority 2000, dated 2005)
Like-named read-outs stand apart in the source and are kept apart here.

Assays:
[1] = molecular target: T1, α4β1 integrin receptor (Homo sapiens, UniProt P05556+P13612); assay: Ramos Cell Adhesion Assay (α4β1 Mediated Adhesion/VCAM-1); assay type: cell-based
T1 construct: Ramos Cell Adhesion Assay (α4β1 Mediated Adhesion/VCAM-1); endogenous in cells; host or cells: Ramos cells
Procedure: Ramos Cell Adhesion Assay (α4β1 Mediated Adhesion/VCAM-1)
(§1) Immulon 96 well plates (Dynex) were coated with 100 μL recombinant hVCAM-1 at 4.0 μg/mL in 0.05 M NaCO3 buffer pH 9.0 overnight at 4° C. (R&D Systems). Plates were washed 3 times in PBS with 1% BSA and blocked for 1 h @ room temperature in this buffer. PBS was removed and compounds to be tested (50 μL) were added at 2× concentration. Ramos cells, (50 μL at 2×10^6/mL) labeled with 5 μM Calcein AM (Molecular Probes) for 1 h at 37° C., were added to each well and allowed to adhere for 1 h at room temperature. Plates were washed 3× in PBS+1% BSA and cells were lysed for 15 minutes in 100 μL of 1 M Tris pH 8.0 with 1% SDS. The plate was read at 485 nm excitation and 530 nm emission.

[2] = molecular target: T2, human α4β7 (Homo sapiens, UniProt P13612+P26010); assay: α4β7-K562 Cell Adhesion Assay (α4β7 Mediated Adhesion/VCAM-1); assay type: cell-based
T2 construct: expressed in transfected cells
T2 sequence (P13612 34-1032): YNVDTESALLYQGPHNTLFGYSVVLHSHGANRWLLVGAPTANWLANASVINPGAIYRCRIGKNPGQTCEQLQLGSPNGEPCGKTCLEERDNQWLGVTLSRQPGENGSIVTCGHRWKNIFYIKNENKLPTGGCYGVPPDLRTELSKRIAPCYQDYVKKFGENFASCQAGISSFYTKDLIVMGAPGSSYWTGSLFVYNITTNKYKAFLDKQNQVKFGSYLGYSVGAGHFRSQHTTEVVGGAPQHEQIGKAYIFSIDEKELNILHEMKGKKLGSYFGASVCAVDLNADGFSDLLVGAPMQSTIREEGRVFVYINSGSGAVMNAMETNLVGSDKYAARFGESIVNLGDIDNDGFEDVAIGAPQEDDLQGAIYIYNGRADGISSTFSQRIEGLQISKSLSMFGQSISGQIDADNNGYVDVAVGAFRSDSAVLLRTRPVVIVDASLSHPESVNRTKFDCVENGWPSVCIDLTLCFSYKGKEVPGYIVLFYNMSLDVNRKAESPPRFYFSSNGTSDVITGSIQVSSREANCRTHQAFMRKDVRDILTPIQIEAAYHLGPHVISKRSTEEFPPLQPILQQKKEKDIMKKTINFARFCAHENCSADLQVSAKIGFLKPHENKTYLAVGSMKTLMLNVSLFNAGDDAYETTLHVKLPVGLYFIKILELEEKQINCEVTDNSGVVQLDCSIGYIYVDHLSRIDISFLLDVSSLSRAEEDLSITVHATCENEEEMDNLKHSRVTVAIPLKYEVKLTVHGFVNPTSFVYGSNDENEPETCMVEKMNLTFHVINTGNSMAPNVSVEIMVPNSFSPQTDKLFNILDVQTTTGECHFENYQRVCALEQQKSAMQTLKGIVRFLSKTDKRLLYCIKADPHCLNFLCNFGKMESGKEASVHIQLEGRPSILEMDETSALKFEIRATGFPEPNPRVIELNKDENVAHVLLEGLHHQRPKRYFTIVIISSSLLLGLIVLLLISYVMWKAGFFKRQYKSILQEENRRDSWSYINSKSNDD
T2 sequence (P26010 20-798): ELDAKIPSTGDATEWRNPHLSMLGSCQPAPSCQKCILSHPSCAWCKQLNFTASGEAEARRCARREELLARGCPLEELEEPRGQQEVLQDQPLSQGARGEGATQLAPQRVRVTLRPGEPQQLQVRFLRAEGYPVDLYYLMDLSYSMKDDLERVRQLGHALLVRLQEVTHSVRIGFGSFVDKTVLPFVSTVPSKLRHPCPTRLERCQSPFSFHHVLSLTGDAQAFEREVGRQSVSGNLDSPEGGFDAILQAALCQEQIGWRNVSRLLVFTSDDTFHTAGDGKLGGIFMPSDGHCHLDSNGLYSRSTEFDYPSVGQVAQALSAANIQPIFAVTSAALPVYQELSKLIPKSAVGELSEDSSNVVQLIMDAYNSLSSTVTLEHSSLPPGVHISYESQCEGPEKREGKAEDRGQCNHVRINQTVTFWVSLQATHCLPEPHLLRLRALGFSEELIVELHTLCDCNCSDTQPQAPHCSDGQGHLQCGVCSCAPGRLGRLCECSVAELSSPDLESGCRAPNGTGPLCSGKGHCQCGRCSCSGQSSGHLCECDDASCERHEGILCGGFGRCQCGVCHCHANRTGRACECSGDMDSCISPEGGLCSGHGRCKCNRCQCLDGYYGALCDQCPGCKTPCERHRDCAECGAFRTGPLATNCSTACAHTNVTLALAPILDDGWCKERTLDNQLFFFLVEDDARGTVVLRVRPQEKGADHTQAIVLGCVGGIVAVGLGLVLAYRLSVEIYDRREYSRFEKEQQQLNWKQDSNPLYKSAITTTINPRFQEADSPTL
Procedure: α4β7-K562 Cell Adhesion Assay (α4β7 Mediated Adhesion/VCAM-1)
as §1, with “A stable cell line of K562 cells expressing human α4β7,” for “Ramos cells,”

[3] = Table I, racemic mixtures and resolved (S,S) and (R,S) diastereomers, read-out: Antagonist IC50 Activity α4β1
[4] = Table III, read-out: Inhibition of Binding of Ramos Cells to Immobilized VCAM-1 IC50
[5] = Table I, racemic mixtures and resolved (S,S) and (R,S) diastereomers, read-out: Antagonist IC50 Activity α4β7
[6] = Table IV, read-out: Inhibition of Binding of K562 Cells to Immobilized VCAM-1 IC50
[7] = Table IV, μM, read-out: Inhibition of Binding of K562 Cells to Immobilized VCAM-1 IC50
[8] = Table III, μM, read-out: Inhibition of Binding of Ramos Cells to Immobilized VCAM-1 IC50

T1 sequence (P05556 21-798, one chain of several): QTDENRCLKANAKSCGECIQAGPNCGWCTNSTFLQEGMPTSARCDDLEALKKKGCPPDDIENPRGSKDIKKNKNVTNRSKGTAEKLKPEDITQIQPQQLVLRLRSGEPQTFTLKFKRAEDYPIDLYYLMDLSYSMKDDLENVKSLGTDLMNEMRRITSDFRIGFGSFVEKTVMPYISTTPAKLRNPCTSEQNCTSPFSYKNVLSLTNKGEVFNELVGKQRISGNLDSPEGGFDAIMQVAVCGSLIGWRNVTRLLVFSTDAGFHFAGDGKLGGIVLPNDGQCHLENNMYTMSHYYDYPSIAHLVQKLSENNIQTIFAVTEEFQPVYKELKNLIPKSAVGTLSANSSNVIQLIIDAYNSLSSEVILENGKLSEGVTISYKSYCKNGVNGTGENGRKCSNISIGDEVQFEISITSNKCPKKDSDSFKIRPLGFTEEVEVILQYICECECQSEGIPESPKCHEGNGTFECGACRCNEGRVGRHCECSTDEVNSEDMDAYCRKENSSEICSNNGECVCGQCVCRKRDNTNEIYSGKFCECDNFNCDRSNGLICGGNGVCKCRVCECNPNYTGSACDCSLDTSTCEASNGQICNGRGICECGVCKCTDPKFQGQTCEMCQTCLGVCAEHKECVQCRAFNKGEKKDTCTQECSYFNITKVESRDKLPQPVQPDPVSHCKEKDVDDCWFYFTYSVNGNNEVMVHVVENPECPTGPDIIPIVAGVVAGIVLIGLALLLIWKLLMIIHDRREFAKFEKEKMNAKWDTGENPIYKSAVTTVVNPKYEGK

Compound	IC50 [1, 4] [µM]	IC50 [2, 6] [µM]	further results
O=C(Nc1ccc(C[C@H](NC(=O)[C@@H]2C3CCC(CC3)N2S(=O)(=O)c2ccccc2)C(=O)O)cc1)c1c(Cl)cccc1Cl [Cpd 6a, 4-[(2,6-dichlorobenzoyl)amino]-N-[[(3S)-2-(phenylsulfonyl)-2-azabicyclo[2.2.2]oct-3-yl]carbonyl]-L-phenylalanine]	0.021		IC50 [1, 3]: 0.023 µM; IC50 [2, 5]: 0.217 µM
COc1cccc(OC)c1C(=O)Nc1ccc(C[C@H](NC(=O)C2C3CCC(CC3)N2S(=O)(=O)c2ccc(C)cc2)C(=O)O)cc1 (stereo partly drawn) [Cpd 3, 4-[(2,6-dimethoxybenzoyl)amino]-N-[[2-[(4-methylphenyl)sulfonyl]-2-azabicyclo[2.2.2]oct-3-yl]carbonyl]-L-phenylalanine]	0.05	1.94	
Cc1ccc(S(=O)(=O)N2C3CCC(CC3)[C@H]2C(=O)N[C@@H](Cc2ccc(OCc3c(Cl)cccc3Cl)cc2)C(=O)O)cc1 [Cpd 29, 4-[(2,6-dichlorophenyl)methoxy]-N-[[(3S)-2-[[4-methylphenyl)sulfonyl]-2-azabicyclo[2.2.2]oct-3-yl]carbonyl]-L-phenylalanine]	0.058	4.94	
O=C(Nc1ccc(C[C@H](NC(=O)[C@@H]2C3CCC(C3)N2S(=O)(=O)c2ccccc2)C(=O)O)cc1)c1c(Cl)cccc1Cl (stereo partly drawn) [Cpd 16a, 4-[(2,6-dichlorobenzoyl)amino]-N-[[(3S)-2-(phenylsulfonyl)-2-azabicyclo[2.2.1]hept-3-yl]carbonyl]-L-phenylalanine]	0.153		IC50 [1, 3]: 0.153 µM; IC50 [2, 5]: 2.09 µM
COc1cccc(OC)c1C(=O)Nc1cccc(C[C@H](NC(=O)C2C3CCC(CC3)N2S(=O)(=O)c2ccc(C)cc2)C(=O)O)c1 (stereo partly shown) [Cpd 36, 3-[(2,6-dimethoxybenzoyl)amino]-N-[[2-[(4-methylphenyl)sulfonyl]-2-azabicyclo[2.2.2]oct-3-yl]carbonyl]phenylalanine]			IC50 [1, 8]: > 5 µM; IC50 [2, 7]: > 10 µM
Cc1ccc(S(=O)(=O)N2C3CCC(CC3)C2C(=O)N[C@@H](Cc2ccc(NC(=O)c3c(Cl)cccc3Cl)cc2)C(=O)O)cc1 (mixture of isomers) [Cpd 1, 4-[(2,6-dichlorobenzoyl)amino]-N-[[2-[(4-methylphenyl)sulfonyl]-2-azabicyclo[2.2.2]oct-3-yl]carbonyl]-L-phenylalanine]	0.045	0.142	
Cc1ccc(S(=O)(=O)N2C3CCC(CC3)C2C(=O)N[C@@H](Cc2ccc(-n3cccc3)cc2)C(=O)O)cc1 (stereo partly drawn) [Cpd 32, 4-(1H-pyrrol-1-yl)-N-[[2-[(4-methylphenyl)sulfonyl]-2-azabicyclo[2.2.2]oct-3-yl]carbonyl]-L-phenylalanine]			IC50 [1, 8]: > 5 µM; IC50 [2, 7]: > 10 µM
COc1cccc(OC)c1C(=O)Nc1ccc(C[C@H](NC(=O)[C@@H]2C3CCC(C3)N2S(=O)(=O)c2ccccc2)C(=O)O)cc1 (stereo partly drawn) [Cpd 19a, 4-[(2,6-dimethoxybenzoyl)amino]-N-[[(3S)-2-(phenylsulfonyl)-2-azabicyclo[2.2.1]hept-3-yl]carbonyl]-L-phenylalanine]	0.3		IC50 [1, 3]: 0.3 µM; IC50 [2, 5]: 3.82 µM
COc1cccc(OC)c1-c1ccc(C[C@H](NC(=O)[C@@H]2C3CCC(CC3)N2S(=O)(=O)c2ccccc2)C(=O)O)cc1 [Cpd 8, 4-(2,6-dimethoxyphenyl)-N-[[(3S)-2-(phenylsulfonyl)-2-azabicyclo[2.2.2]oct-3-yl]carbonyl]-L-phenylalanine]	0.081	0.343	
O=C(Nc1ccc(C[C@H](NC(=O)C2C3CCC(CC3)N2S(=O)(=O)c2ccccc2)C(=O)O)cc1)c1c(F)c(F)cc(F)c1F (stereo partly drawn) [Cpd 44, 4-[(2,3,5,6-tetrafluorobenzoyl)amino]-N-[[2-(phenylsulfonyl)-2-azabicyclo[2.2.2]oct-3-yl]carbonyl]-L-phenylalanine]	0.309		

Second part, led by results:

IC50 [1, 4] [µM]	IC50 [2, 6] [µM]	Compound	further results
0.873		CC1(C)C(C(=O)Nc2ccc(C[C@H](NC(=O)[C@@H]3C4CCC(CC4)N3S(=O)(=O)c3ccccc3)C(=O)O)cc2)C1(C)C [Cpd 68, 4-[[(2,2,3,3-tetramethylcyclopropyl)carbonyl]amino]-N-[[(3S)-2-(phenylsulfonyl)-2-azabicyclo[2.2.2]oct-3-yl]carbonyl]-L-phenylalanine]	IC50 [2, 7]: > 50 µM
0.054	0.223	O=C(Nc1ccc(C[C@H](NC(=O)[C@@H]2C3CCC(CC3)N2S(=O)(=O)c2ccccc2)C(=O)O)cc1)c1ccncc1 [Cpd 50a, 4-[(4-pyridinylcarbonyl)amino]-N-[[(3S)-2-(phenylsulfonyl)-2-azabicyclo[2.2.2]oct-3-yl]carbonyl]-L-phenylalanine]	
0.056		CN(C)C(=O)Nc1ccc(C[C@H](NC(=O)C2C3CCC(CC3)N2S(=O)(=O)c2ccccc2)C(=O)O)cc1 (stereo partly drawn) [Cpd 61, 4-[[(dimethylamino)carbonyl]amino]-N-[[2-(phenylsulfonyl)-2-azabicyclo[2.2.2]oct-3-yl]carbonyl]-L-phenylalanine]	
0.007		O=C(Nc1ccc(C[C@H](NC(=O)C2C3CCC(CC3)N2S(=O)(=O)c2cccs2)C(=O)O)cc1)c1c(Cl)cncc1Cl (mixture of isomers) [Cpd 71, 4-[[(3,5-dichloro-4-pyridinyl)carbonyl]amino]-N-[[2-(2-thienylsulfonyl)-2-azabicyclo[2.2.2]oct-3-yl]carbonyl]-L-phenylalanine]	IC50 [1, 3]: 0.009 µM; IC50 [2, 5]: 0.03 µM
0.009		O=C(Nc1ccc(C[C@H](NC(=O)[C@@H]2C3CCC(CC3)N2S(=O)(=O)c2ccccc2)C(=O)O)cc1)c1c(Cl)cncc1Cl [Cpd 60, 4-[[(3,5-dichloro-4-pyridinyl)carbonyl]amino]-N-[[(3S)-2-(phenylsulfonyl)-2-azabicyclo[2.2.2]oct-3-yl]carbonyl]-L-phenylalanine]	
